Test system: erythrocytes
Assay: Visual separation (sedimentation) of erythrocyte and nucleated cell fractions of blood samples
Assay type: cell-based
Conditions: for separation of whole blood / order from best to worst of each substance at the separation: Example 4; for separation of whole blood: whole blood 1:1 with PBS composition of 2.5% Dextran 70 plus substance at 1-5%, 30 minutes room temperature; for order from best to worst of each substance at the separation: with 2.5% Dextran 70
Experimental: Umbilical cord blood was collected into standard Baxter 250 ml (nominal) blood bags containing 35 ml of a citrate phosphate dextrose adenine (CPDA) anticoagulant solution.
A solution containing dextran and a further constituent selected from dimethyl sulphoxide (DMSO), dimethyl glycine (DMG), L-valine, L-proline, β-alanine, leucine, isoleucine and glycine, in phosphate-buffered saline (PBS), was prepared. This solution was added to a blood sample at a ratio of 1:1, this was then mixed thoroughly. Separation of the erythrocyte and nucleated cell fractions took place at room temperature within a time period of 15 or 30 minutes. […]
Whole blood samples were mixed with 1:1 with PBS compositions comprising 2.5% Dextran 70 plus DMSO, L-valine, L-proline, β-alanine, leucine, isoleucine, glycine and DMG. Each of the amino acids and the DMSO were tested at concentration levels of 1%, 1.5%, 2%, 2.5%, 3%, 3.5%, 4%, 4.5% and 5% in the PBS composition. After mixing, each sample was left for 30 minutes at room temperature. […]

[1] = dextran 70 Mw final 2.5% + substance final 2.5% w/v, after 30 minutes, data not shown

| Structure (SMILES) | separation of whole blood | order from best to worst of each substance at the separation | separation of erythrocytes and nucleated cells [1] | separation of erythrocytes and nucleated cells (dextran 500 Mw final 2.5% w/v + DMSO final 1% to 5% v/v, after 15 minutes and 30 minutes) | separation of the erythrocytes from the nucleated cells (umbilical cord blood 1:1, dextran 500 Mw final 2.5% w/v + DMSO final 2% or 2.5% v/v, 30 minutes) |
| --- | --- | --- | --- | --- | --- |
| CC[C@H](C)[C@H](N)C(=O)O [isoleucine] | almost total inactivity | DMSO>L-valine>DMG>L-proline>β-alanine>Leucine/isoleucine/glycine | little if any separation |  |  |
| NCCC(=O)O [β-alanine] | did very little | DMSO>L-valine>DMG>L-proline>β-alanine>Leucine/isoleucine/glycine | little if any separation |  |  |
| CC(C)C[C@H](N)C(=O)O [leucine] | almost total inactivity | DMSO>L-valine>DMG>L-proline>β-alanine>Leucine/isoleucine/glycine | little if any separation |  |  |
| NCC(=O)O [glycine] | almost total inactivity | DMSO>L-valine>DMG>L-proline>β-alanine>Leucine/isoleucine/glycine | little if any separation |  |  |
| C[S+](C)[O-] [DMSO, dimethyl sulphoxide] |  | DMSO>L-valine>DMG>L-proline>β-alanine>Leucine/isoleucine/glycine |  | clear separation | clear separation |
| O=C(O)[C@@H]1CCCN1 [L-proline] | did very little | DMSO>L-valine>DMG>L-proline>β-alanine>Leucine/isoleucine/glycine | little if any separation |  |  |
| CC(C)[C@H](N)C(=O)O [L-valine] | performed better than DMG | DMSO>L-valine>DMG>L-proline>β-alanine>Leucine/isoleucine/glycine | clear separation |  |  |
| CN(C)CC(=O)O [DMG, dimethyl glycine] |  | DMSO>L-valine>DMG>L-proline>β-alanine>Leucine/isoleucine/glycine | clear separation |  |  |
